“Also recorded” adds a separate entry of the source.
Columns and labels:
[1] = tested on: T. b. brucei EATRO 110; experiment: Drug screen, acute EATRO 110 mouse infection (Tables 1, 3); type: in vivo, Trypanosoma brucei brucei (in Swiss-Webster mice)
Source text: (§1) T. b. brucei EATRO 110 isolate was maintained as described (Bacchi, C. J., H. C. Nathan, S. H. Hutner, P. P. McCann and A. Sjoerdsma; Polyamine metabolism: a potential chemotherapeutic target in trypanosomes. Science 210: 332-334, 1980). It produces an acute, rapidly fatal parasitemia which is lethal to mice 3-5 days after inoculation. Two T. B. brucei strains, TREU 667 and LUMP 1001 developed by Jennings and coworkers (Jennings, F. W., D. D. Whitelaw and G. M. Urquhart; The relationship between duration of infection with Trypanosoma brucei in mice and the efficacy of chemotherapy. Parasitology 75: 143-153, 1977/Jennings, F. W. and G. D. Gray; Relapsed parasitemia following chemotherapy of chronic T. brucei infections in mice and its relation to cerebral trypanosomes; Contr. Microbiol. Immunol. 7 147-154, 1983) were used as CNS models. Both produce infections which are refractory to Berenil® (diminazene aceturate) and develop within 21 days after inoculation. They are not usually fatal until >40 days after inoculation. LUMP 1001 causes a more virulent CNS infection than TREU 667, and is regarded as more difficult to cure (Jennings, F. W. and G. D. Gray. Relapsed parasitemia following chemotherapy of chronic T. brucei infections in mice and its relation to cerebral trypanosomes. Contr. Microbiol. Immunol. 7 147-154, 1983).
Swiss-Webster (25-30 g) mice were used throughout. In the EATRO 110 model, groups of 100 mice were infected (10^5 trypanosomes/mouse) and the infection was allowed to develop 24 hours before commencing therapy. Animals were divided into groups of 5 before treatment. Cured animals survived >30 days beyond deaths of controls. All compounds were administered by i.p. injection.
Other methods as in Table 1.

[2] = tested on: T. b. brucei LUMP 1001; experiment: CNS model, T. b. brucei LUMP 1001 infection in mice (Table 5); type: in vivo, Trypanosoma brucei brucei (in Swiss-Webster mice); conditions: for efficacy in CNS model in words: LUMP 1001
Source text: as §1
The models for […] nervous system infections used TREU 667 and LUMP 1001 strains which were stored frozen and passaged once in rats before infection of mice. Maintenance and use of these screens were as described (Clarkson, A. B. Jr., C. J. Bacchi, G. H. Mellon, H. C. Nathan, P. P. McCann and A. Sjoerdsma. Efficacy of DFMO+blemoycin in a mouse model of central nervous system African trypanosomiasis. Proc. Natl. Acad. Sci. USA. 80: 5729-5733, 1983/Clarkson, A. B. Jr., E. J. Biene, C. J. Bacchi, P. P. McCann, S. H. Hutner and A. Sjoerdsma. New drug combination for experimental late stage African trypanosomiasis: DFMO with suramin. Am. J. Trop. Med. Hyg. 33: 1073-1077, 1984/Dube, D. K., G. Mpimbaza, A. C. Allison, E. Lederer and L. Rovis. Antitrypanosomal activity of sinefungin, Am. J. Trop. Med. Hyg. 32: 31-33, 1983/Fish, W. R., J. J. Marr, R. L. Berens, D. L. Looker, D. J. Nelson, S. LaFon and A. E. Balber. Inosine analogs as chemotherapeutic agents for African trypanosomes: metabolism in trypanosomes and efficacy in tissue culture. Anti-microb. Ag. Chemother. 27: 33-36, 1985/Clazer, R. I., and L. S. Lloyd. Effects of 8-azaadenosine and formycin on cell lethality and the synthesis and methylation of nucleic acids in human colon carcinoma cells in culture. Biochem. Pharmacol. 31: 3207-3214, 1982/Bacchi, C. J., H. C. Nathan, A. B. Clarkson, Jr., E. J. Bienen, A. J. Bitonti, P. P. McCann and A. Sjoerdsma. Activity of the ornithine decarboxylase inhibitors DL-α-difluoromethylornithine and monofluormethyldehydroornithine methylester alone and in combination with suramin against Trypanosoma brucei brucei central nervous system models, Am. J. Trop. Med. Hyg. (in press)). Briefly, groups of 100-120 mice were infected and the infections allowed to develop until day 21, when the animals were separated into groups of 10 and therapy commenced. Controls were treated with Berenil (40 mg/kg) on day 21. […] Parasitemia was followed by examining tail vein blood smears once weekly. Animals which had relapsed were removed from cages.

[3] = Table 1, 5 mg/kg i.p. (9-DINO, sinefungin once daily for 3 days)
[4] = Table 1, 10 mg/kg i.p. (9-DINO, sinefungin once daily for 3 days)
[5] = Table 1, 25 mg/kg i.p. (9-DINO, sinefungin once daily for 3 days)
[6] = Table 1, 50 mg/kg i.p. (9-DINO, sinefungin once daily for 3 days)
[7] = Table 1, 100 mg/kg i.p. (9-DINO, sinefungin once daily for 3 days)
[8] = Table 1, 200 mg/kg i.p. once daily for 3 days
[9] = Table 1, 400 mg/kg i.p. once daily for 3 days
[10] = Table 3, 5 mg/kg i.p. once daily for 3 days
[11] = Table 3, 10 mg/kg i.p. once daily for 3 days
[12] = Table 3, 25 mg/kg i.p. once daily for 3 days
[13] = Table 1, 0.5 mg/kg i.p. once daily for 3 days
[14] = Table 1, 1 mg/kg i.p. once daily for 3 days
[15] = Table 1, 2.5 mg/kg i.p. (9-DINO, sinefungin once daily for 3 days)
[16] = Table 3, 0.5 mg/kg i.p. once daily for 3 days
[17] = Table 3, 1.0 mg/kg i.p. once daily for 3 days

Structure (SMILES): O=c1[nH]cnc2c([C@@H]3O[C@H](CO)[C@@H](O)[C@H]3O)c[nH]c12 [9-DINO, 7-beta-D-ribofuranosyl-4-oxo-3H, 5H-pyrrolo (3,2-d) pyrimidine]
- cure rate ([1]; 50-100 mg/kg, EATRO 110): 100%
- curative / active dose range ([1]; EATRO 110, text): 25 to 200 mg/kg
- # Cured/Total [1, 3]: 0/5
- % Cured [1, 3]: 0%
- # Cured/Total [1, 4]: 2/30
- % Cured [1, 4]: 7%
- # Cured/Total [1, 5]: 15/20
- % Cured [1, 5]: 50%
- # Cured/Total [1, 6]: 4/5
- % Cured [1, 6]: 80%
- # Cured/Total [1, 7]: 5/5
- % Cured [1, 7]: 100%
- # Cured/Total [1, 8]: 5/5
- % Cured [1, 8]: 100%
- # Cured/Total [1, 9]: 3/5
- % Cured [1, 9]: 60%
- # Cured/Total [1, 10]: 0/5
- % Cured [1, 10]: 0%
- # Cured/Total [1, 11]: 2/30
- % Cured [1, 11]: 7%
- # Cured/Total [1, 12]: 15/20
- % Cured [1, 12]: 75%
- activity in the acute (short term) EATRO 110 model, in words ([1]; listed as 9-deazainosine): greatest activity; also recorded: most active analog of the two
- activity in the acute (short term) EATRO 110 model, in words ([1]; text summary): greatest activity; also recorded: highly effective; also recorded: active against acute models; also recorded: more effective than sinefungin, allopurinol and allopurinol riboside
- activity in the acute (short term) EATRO 110 model, in words ([1]; text summary, listed as 9DINO): active against an acute infection
- # Cured/Total ([2]; 50 mg/kg i.p., 7 days): 0/10
- % Cured ([2]; 50 mg/kg i.p., 7 days): 0%
- Avg. Day of Relapse (Range) ([2]; 50 mg/kg i.p., 7 days): 36 (35-44) Day
- # Cured/Total ([2]; 100 mg/kg i.p., 7 days): 0/9
- % Cured ([2]; 100 mg/kg i.p., 7 days): 0%
- Avg. Day of Relapse (Range) ([2]; 100 mg/kg i.p., 7 days): 38 (35-44) Day
- # Cured/Total ([2]; 250 mg/kg i.p., 7 days): 0/10
- % Cured ([2]; 250 mg/kg i.p., 7 days): 0%
- Avg. Day of Relapse (Range) ([2]; 250 mg/kg i.p., 7 days): 49 (35-63) Day
- efficacy in CNS model in words [2]: did not cure CNS infections

Structure (SMILES): Nc1ncnc2c1ncn2[C@@H]1O[C@H](C[C@@H](N)CC[C@H](N)C(=O)O)[C@@H](O)[C@H]1O [Sinefungin, 6,9-Diamino-1-(6-amino-9H-purin-9-yl)-1,5,6,7,8,9-hexadeoxy-beta-D-ribo-decofuranuronic acid]
- % active ([1]; 25 mg/kg, single dose): 80%
- # Cured/Total [1, 13]: 0/15
- % Cured [1, 13]: 0%
- # Cured/Total [1, 14]: 0/20
- % Cured [1, 14]: 0%
- # Cured/Total [1, 15]: 0/5
- % Cured [1, 15]: 0%
- # Cured/Total [1, 3]: 9/15
- % Cured [1, 3]: 60%
- # Cured/Total [1, 4]: 8/15
- % Cured [1, 4]: 53%
- # Cured/Total [1, 5]: 4/5
- % Cured [1, 5]: 80%
- # Cured/Total [1, 16]: 0/15
- % Cured [1, 16]: 0%
- # Cured/Total [1, 17]: 0/20
- % Cured [1, 17]: 0%
- # Cured/Total [1, 10]: 9/15
- % Cured [1, 10]: 60%
- # Cured/Total [1, 11]: 8/15
- % Cured [1, 11]: 53%
- # Cured/Total [1, 12]: 4/5
- % Cured [1, 12]: 80%
- % effective ([1]; single doses of 5 or 10 mg/kg): ~ 50%
- activity in the acute (short term) EATRO 110 model, in words ([1]; text summary): less active than 9-DINO and Formycin B
- # Cured/Total ([2]; 2.5 mg/kg i.p., 3 days): 0/10
- % Cured ([2]; 2.5 mg/kg i.p., 3 days): 0%
- Avg. Day of Relapse (Range) ([2]; 2.5 mg/kg i.p., 3 days): 35 days
- # Cured/Total ([2]; 5 mg/kg i.p., 3 days): 0/10
- % Cured ([2]; 5 mg/kg i.p., 3 days): 0%
- Avg. Day of Relapse (Range) ([2]; 5 mg/kg i.p., 3 days): 35 days
- # Cured/Total ([2]; 10 mg/kg i.p., 3 days): 0/10
- % Cured ([2]; 10 mg/kg i.p., 3 days): 0%
- Avg. Day of Relapse (Range) ([2]; 10 mg/kg i.p., 3 days): 39 (35-71) Day
- efficacy in CNS model in words [2]: did not produce complete cures
